Source: patent US7981926B2, “Fluorotaxoids” (Research Foundation of State University of New York, priority 2005, dated 2011)
pIC50: −log10 of the molar value. Read-outs that look alike come from different tables or passages of the source.

Legend:
MCF7 (mammary carcinoma) = experiment: Tumor growth inhibitory activity (cytotoxicity), SRB method of Skehan et al, MCF7; type: cell-based, human; details: read-out: IC50 MCF7 (breast)
Source text: (§1) The results were obtained according to the methods of Skehan et al (See Skehan et al., J. Nat. Cancer Inst., 82, 1107 (1990)), as more fully described in the Examples. The resistance factor (R/S) shown in the table is a measure of the degree of resistance of a cell line against a taxoid compound. The resistance factor is a ratio of the cytoxicity of a taxoid compound against a drug-resistant cell line (R) as compared to its cytoxicity against a drug-sensitive cell line (S).
(§2) In the tables, lower numbers indicate higher potency (or greater activity). Paclitaxel was used as the standard for comparison. The data represent the mean values of at least three separate experiments.
(§3) Assessment of cell growth inhibition was determined according to the methods of Skehan et al (See Skehan et al., J. Nat. Cancer Inst., 82, 1107 (1990)). Briefly, cells were plated between 400 and 1200 cells/well in 96 well plates and incubated at 37° C. for 15-18 h prior to drug addition to allow attachment of cells. Compounds tested were solubilized in 100% DMSO and further diluted in RPMI-1640 containing 10 mM HEPES. Each cell line was treated with 10 concentrations of compounds (5 log range). After a 72 h incubation, 100 μL of ice-cold 50% TCA was added to each well and incubated for 1 h at 4° C. Plates were then washed 5 times with tap water to remove TCA, low-molecular-weight metabolites and serum proteins. Sulforhodamine B (SRB) (0.4%, 50 μL) was added to each well. Following a 5 minute incubation at room temperature, plates were rinsed 5 times with 0.1% acetic acid and air dried. Bound dye was solubilized with 10 mM Tris Base (pH 10.5) for 5 min on a gyratory shaker. Optical density was measured at 570 nm.
(§4) Data were fit with the Sigmoid-Emax concentration-effect model with non-linear regression, weighted by the reciprocal of the square of the predicted response (see Holford, N. H. G.; Scheiner, L. B., “Understanding the dose-effect relationship: Clinical applications of pharmaco-kinetic-pharmacodynamic models,” Clin. Pharmacokin., 6, 429-453 (1981)). The fitting software was developed by the Roswell Park Cancer Institute with Microsoft FORTRAN, and uses the Marquardt algorithm (see Marquardt, D. W., “An algorithm for least squares estimation of nonlinear parameters,” J. Soc. Ind. Appl. Math., 11, 431-441 (1963)) as adopted by Nash for the non-linear regression (see Nash, J. C., “Compact numerical method for computers: Linear algebra and function minimization,” John Wiley & Sons, New York, 1979).

[1] = test system: MCF7-R (mammary carcinoma cells 250-fold resistant to paclitaxel); experiment: Tumor growth inhibitory activity (cytotoxicity), SRB method of Skehan et al, MCF7-R; type: cell-based, human; details: for pIC50: read-out: IC50 MCF7-R (breast); for R/S (resistance factor): ratio of cytotoxicity against drug-resistant MCF7-R (R) to drug-sensitive MCF7 (S)
Source text: as §1, §2, §3, §4

[2] = Homo sapiens, MCF7, 72 h drug exposure, SRB, mean of at least three separate experiments
[3] = Homo sapiens, MCF7R, drug-resistant cell line, 72 h drug exposure, SRB, mean of at least three separate experiments
[4] = 72 h drug exposure, SRB, mean of at least three separate experiments
[5] = drug-resistant cell line, 72 h drug exposure, SRB, mean of at least three separate experiments

| Compound | pIC50 (MCF7 (mammary carcinoma); Homo sapiens, MCF7, 72 h) | pIC50 ([1]; Homo sapiens, MCF7R, 72 h) | R/S (resistance factor) [1] | melting point [°C] | pIC50 (MCF7 (mammary carcinoma); [2]) | pIC50 [1, 3] | pIC50 (MCF7 (mammary carcinoma); [4]) | pIC50 [1, 5] |
| --- | --- | --- | --- | --- | --- | --- | --- | --- |
| CC(=O)O[C@@]12CO[C@@H]1C[C@H](O)[C@@]1(C)C(=O)[C@H](OC(=O)N(C)C)C3=C(C)[C@@H](OC(=O)[C@H](O)[C@H](C=C(F)F)NC(=O)OC(C)(C)C)C[C@@](O)([C@@H](OC(=O)c4ccccc4)C12)C3(C)C (some centres unmarked) [SB-T-12854, 3′-Dephenyl-3′-(2,2-difluorovinyl)-10-dimethylcarbamoyldocetaxel] | 9.89 | 8.37 | 33 | 166 to 170 |  |  |  |  |
| CCC(=O)O[C@H]1C(=O)[C@@]2(C)C([C@H](OC(=O)c3ccccc3)[C@]3(O)C[C@H](OC(=O)[C@H](O)[C@H](C=C(F)F)NC(=O)OC(C)(C)C)C(C)=C1C3(C)C)[C@]1(OC(C)=O)CO[C@@H]1C[C@@H]2O (some centres unmarked) [SB-T-12853, 3′-Dephenyl-3′-(2,2-difluorovinyl)-10-propanoyl-docetaxel] |  |  | 10 | 175 to 181 | 9.92 | 8.92 |  |  |
| CC(=O)O[C@@]12CO[C@@H]1C[C@H](O)[C@@]1(C)C(=O)[C@H](OC(=O)C3CC3)C3=C(C)[C@@H](OC(=O)[C@H](O)[C@H](C=C(F)F)NC(=O)OC(C)(C)C)C[C@@](O)([C@@H](OC(=O)c4ccccc4)[C@H]21)C3(C)C [SB-T-12852, 3′-dephenyl-3′-(2,2-difluorovinyl)-10-cyclopropanecarbonyl-docetaxel] |  |  | 53 |  |  |  | 9.92 | 8.22 |
| CC(=O)OC12COC1CC(O)C1(C)C(=O)C(OC(=O)C3CC3)C3=C(C)C(OC(=O)C(O)C(C=C(F)F)NC(=O)OC(C)(C)C)CC(O)(C(OC(=O)c4cccc(F)c4)C21)C3(C)C (centres unmarked) [SB-T-12852-2, 3′-Dephenyl-3′-(2,2-difluorovinyl)-2-debenzoyl-2-(3-fluorobenzoyl)-10-cyclopropanecarbonyldocetaxel] |  |  | 23 |  |  |  | 10.12 | 8.76 |
| CC(=O)O[C@@]12CO[C@@H]1C[C@H](O)[C@@]1(C)C(=O)[C@H](OC(=O)C3CC3)C3=C(C)[C@@H](OC(=O)[C@H](O)[C@H](C=C(F)F)NC(=O)OC(C)(C)C)C[C@@](O)([C@@H](OC(=O)c4cccc(N=[N+]=[N-])c4)[C@H]21)C3(C)C [SB-T-12852-3, 3′-Dephenyl-3′-(2,2-difluorovinyl)-2-debenzoyl-2-(3-azidobenzoyl)-10-cyclopropanecarbonyldocetaxel] |  |  | 4.9 |  |  |  | 10.04 | 9.35 |
| CC(=O)O[C@@]12CO[C@@H]1C[C@H](O)[C@@]1(C)C(=O)[C@H](OC(=O)N(C)C)C3=C(C)[C@@H](OC(=O)[C@H](O)[C@H](C=C(F)F)NC(=O)OC(C)(C)C)C[C@@](O)([C@@H](OC(=O)c4cccc(N=[N+]=[N-])c4)C12)C3(C)C (some centres unmarked) [SB-T-12854-3, 3′-Dephenyl-3′-(2,2-difluorovinyl)-2-debenzoyl-2-(3-azidobenzoyl)-10-dimethylcarbamoyldocetaxel] | 9.89 | 9.35 | 3.7 |  |  |  |  |  |
| CC(=O)O[C@H]1C(=O)[C@@]2(C)C([C@H](OC(=O)c3cccc(Cl)c3)[C@]3(O)C[C@H](OC(=O)[C@H](O)[C@H](C=C(F)F)NC(=O)OC(C)(C)C)C(C)=C1C3(C)C)[C@]1(OC(C)=O)CO[C@@H]1C[C@@H]2O (some centres unmarked) [SB-T-12851-4, 3′-Dephenyl-3′-(2,2-difluorovinyl)-2-debenzoyl-2-(3-chlorobenzoyl)-10-acetyldocetaxel] |  |  | 5.4 |  | 9.89 | 9.15 |  |  |
| CC(=O)O[C@H]1C(=O)[C@@]2(C)C([C@H](OC(=O)c3cccc(F)c3)[C@]3(O)C[C@H](OC(=O)[C@H](O)[C@H](C=C(F)F)NC(=O)OC(C)(C)C)C(C)=C1C3(C)C)[C@]1(OC(C)=O)CO[C@@H]1C[C@@H]2O (some centres unmarked) [SB-T-12851-2, 3′-Dephenyl-3′-(2,2-difluorovinyl)-2-debenzoyl-2-(3-fluorobenzoyl)-10-acetyldocetaxel] |  |  | 12 |  | 9.89 | 8.82 |  |  |
| COC(=O)O[C@H]1C(=O)[C@@]2(C)C([C@H](OC(=O)c3cccc(F)c3)[C@]3(O)C[C@H](OC(=O)[C@H](O)[C@H](C=C(F)F)NC(=O)OC(C)(C)C)C(C)=C1C3(C)C)[C@]1(OC(C)=O)CO[C@@H]1C[C@@H]2O (some centres unmarked) [SB-T-12855-2, 3′-Dephenyl-3′-(2,2-difluorovinyl)-2-debenzoyl-2-(3-fluorobenzoyl)-10-methoxycarbonyldocetaxel] |  |  | 11 |  | 9.92 | 8.73 |  |  |
| COc1cccc(C(=O)O[C@H]2C3[C@](C)(C(=O)[C@H](OC(=O)N(C)C)C4=C(C)[C@@H](OC(=O)[C@H](O)[C@H](C=C(F)F)NC(=O)OC(C)(C)C)C[C@]2(O)C4(C)C)[C@@H](O)C[C@H]2OC[C@@]32OC(C)=O)c1 (some centres unmarked) [SB-T-12854-1, 3′-dephenyl-3′-(2,2-difluorovinyl)-2-debenzoyl-2-(3-methoxybenzoyl)-10-dimethylcarbamate-docetaxel] | 9.96 | 9.02 | 8.7 |  |  |  |  |  |
| CCC(=O)O[C@H]1C(=O)[C@@]2(C)C([C@H](OC(=O)c3cccc(N=[N+]=[N-])c3)[C@]3(O)C[C@H](OC(=O)[C@H](O)[C@H](C=C(F)F)NC(=O)OC(C)(C)C)C(C)=C1C3(C)C)[C@]1(OC(C)=O)CO[C@@H]1C[C@@H]2O (some centres unmarked) [SB-T-12853-3, 3′-Dephenyl-3′-(2,2-difluorovinyl)-2-debenzoyl-2-(3-azidobenzoyl)-10-propanoyldocetaxel] |  |  | 2.9 |  | 9.89 | 9.42 |  |  |
| CCC(=O)O[C@H]1C(=O)[C@@]2(C)C([C@H](OC(=O)c3cccc(OC)c3)[C@]3(O)C[C@H](OC(=O)[C@H](O)[C@H](C=C(F)F)NC(=O)OC(C)(C)C)C(C)=C1C3(C)C)[C@]1(OC(C)=O)CO[C@@H]1C[C@@H]2O (some centres unmarked) [SB-T-12853-1, 3′-Dephenyl-3′-(2,2-difluorovinyl)-2-debenzoyl-2-(3-methoxybenzoyl)-10-propanoyldocetaxel] |  |  | 1.7 |  | 9.47 | 9.24 |  |  |
| CCC(=O)O[C@H]1C(=O)[C@@]2(C)C([C@H](OC(=O)c3cccc(F)c3)[C@]3(O)C[C@H](OC(=O)[C@H](O)[C@H](C=C(F)F)NC(=O)OC(C)(C)C)C(C)=C1C3(C)C)[C@]1(OC(C)=O)CO[C@@H]1C[C@@H]2O (some centres unmarked) [SB-T-12853-2, 3′-Dephenyl-3′-(2,2-difluorovinyl)-2-debenzoyl-2-(3-fluorobenzoyl)-10-propanoyldocetaxel] |  |  | 11 |  | 9.64 | 8.60 |  |  |
| CC(=O)O[C@H]1C(=O)[C@@]2(C)[C@H]([C@H](OC(=O)c3ccccc3)[C@]3(O)C[C@H](OC(=O)[C@H](O)[C@@H](NC(=O)c4ccccc4)c4ccccc4)C(C)=C1C3(C)C)[C@]1(OC(C)=O)CO[C@@H]1C[C@@H]2O [Paclitaxel, paclitaxel, reference compound] |  |  | 250 |  | 8.92 | 6.52 |  |  |
| CC(=O)O[C@H]1C(=O)[C@@]2(C)C([C@H](OC(=O)c3cccc(N=[N+]=[N-])c3)[C@]3(O)C[C@H](OC(=O)[C@H](O)[C@H](C=C(F)F)NC(=O)OC(C)(C)C)C(C)=C1C3(C)C)[C@]1(OC(C)=O)CO[C@@H]1C[C@@H]2O (some centres unmarked) [SB-T-12851-3, 3′-Dephenyl-3′-(2,2-difluorovinyl)-2-debenzoyl-2-(3-azidobenzoyl)-10-acetyldocetaxel] |  |  | 3.7 |  | 10.04 | 9.47 |  |  |
| COC(=O)O[C@H]1C(=O)[C@@]2(C)C([C@H](OC(=O)c3cccc(Cl)c3)[C@]3(O)C[C@H](OC(=O)[C@H](O)[C@H](C=C(F)F)NC(=O)OC(C)(C)C)C(C)=C1C3(C)C)[C@]1(OC(C)=O)CO[C@@H]1C[C@@H]2O (some centres unmarked) [SB-T-12855-4, 3′-Dephenyl-3′-(2,2-difluorovinyl)-2-debenzoyl-2-(3-chlorobenzoyl)-10-methoxycarbonyldocetaxel] |  |  | 12 |  | 10.00 | 8.94 |  |  |
